Assay [1] has as its system A-431. Put plainly: Cytotoxicity against human A431 cells. Type of assay: functional, cell-based.
Assay [2] deals with MCF7. Description: Cytotoxicity against human MCF7 cells. In kind it is functional, cell-based.
In assay [3] the test system is CHO. Description: Cytotoxicity against CHO cells. Type of assay: cell-based. Particulars: Cricetulus griseus.
In assay [4] the test system is COLO 205. Description: Cytotoxicity against human COLO205 cells. Type of assay: functional, cell-based.
Assay [5] has as its system A549. Description: Cytotoxicity against human A549 cells. In kind it is functional, cell-based.

Results on 7 compounds are retold here after ChEMBL document CHEMBL1139295, “Two new cytotoxic diterpenes from the rhizomes of Hedychium spicatum” (Bioorg Med Chem Lett, 2009).

The IC50 is the concentration that gives 50% inhibition. Read a high IC50 as a need for much substance.

Values after ≈ are worked out from the molar mass of the structure shown. Active and inactive are the calls of the source. The rule behind the calls is not given here.

On to `C=C1CC(=O)[C@H]2C(C)(C)CCC[C@]2(C)[C@H]1C/C=C1\CC(O)OC1=O` (stereo not given in full), for which the IC50 is 30.5 µg/mL (≈ 91.8 µM) in assay [1], 49.3 µg/mL (≈ 148 µM) in assay [2], 20.4 µg/mL (≈ 61.2 µM) in assay [3] and 27.6 µg/mL (≈ 82.9 µM) in assay [4]. Moreover, the result in assay [5] was inactive.
Regarding `CC1=CC(=O)[C@H]2C(C)(C)CCC[C@]2(C)[C@@]1(O)/C=C/c1ccoc1`, the IC50 stood at 26.1 µg/mL (≈ 83 µM) in assay [1]; 30.9 µg/mL (≈ 98.4 µM) in assay [2]; 15.7 µg/mL (≈ 49.9 µM) in assay [3]; 24 µg/mL (≈ 76.4 µM) in assay [4]; 41.2 µg/mL (≈ 131 µM) in assay [5].
The like results for `CC1=C(O)C(=O)[C@H]2C(C)(C)CCC[C@]2(C)[C@H]1/C=C/C1=CC(=O)OC1` were, in that order, 16 µg/mL (≈ 48.5 µM), 21.1 µg/mL (≈ 63.7 µM), 7.69 µg/mL (≈ 23.3 µM), 12 µg/mL (≈ 36.4 µM) and 38 µg/mL (≈ 115 µM).
Taken in the same sequence, the figures for `O=c1c(O)c(-c2ccccc2)oc2cc(O)cc(O)c12` [GALANGIN] were 39.4 µg/mL (≈ 146 µM), 53.1 µg/mL (≈ 196 µM), 27 µg/mL (≈ 99.8 µM), 33.1 µg/mL (≈ 123 µM) and 54.2 µg/mL (≈ 201 µM).
As for `C=C1[C@@H](O)C[C@H]2C(C)(C)CCC[C@]2(C)[C@H]1C/C=C1/CCOC1=O`, the IC50 in assay [1] stood at 31.5 µg/mL (≈ 99 µM); in assay [2], 33.5 µg/mL (≈ 105 µM); in assay [3], 21.3 µg/mL (≈ 67 µM); in assay [4] it was 29.8 µg/mL (≈ 93.6 µM). The outcome in assay [5] was inactive.
Turning to `C=C1C[C@@H](O)[C@H]2C(C)(C)CCC[C@]2(C)[C@H]1/C=C/c1ccoc1` [YUNNACORONARIN A], the IC50 in assay [1] was determined as 29 µg/mL (≈ 96.6 µM); in assay [2], 28 µg/mL (≈ 93.4 µM); in assay [3] it was 17.9 µg/mL (≈ 59.5 µM); in assay [4] it was 27.1 µg/mL (≈ 90.3 µM); in assay [5], 46.6 µg/mL (≈ 155 µM).
The like results for `COc1cc(O)c2c(=O)cc(-c3ccccc3)oc2c1` [TECHTOCHRYSIN] were, in that order, 39 µg/mL (≈ 145 µM), 51 µg/mL (≈ 190 µM), 23.5 µg/mL (≈ 87.7 µM), 37.1 µg/mL (≈ 138 µM) and 49.6 µg/mL (≈ 185 µM).
